How the values were obtained:
D-amino-acid oxidase [1] = target: T1, D-amino-acid oxidase (Homo sapiens, UniProt P14920); assay: Inhibition of recombinant full length human DAO preincubated with compound for 20 mins measured after 4 hrs by Amplex red and horseradish peroxidase based fluorescence assay
[2] = Volume of distribution at steady state in C57/BL6 mouse at 2 mg/kg, po or 0.5 mg/kg,iv by LC-MS-MS analysis; assay type: ADME, organism-based; details: in vivo
[3] = Unbound brain-to-plasma concentration ratio in C57Bl/6 mouse at 2 mg/kg, po or 0.5 mg/kg,iv by LC-MS-MS analysis; assay type: ADME, organism-based; details: mouse, brain, po, 2 mg/kg, BLD = below limit of detection
[4] = Unbound drug concentration in C57Bl/6 mouse plasma at 2 mg/kg, po or 0.5 mg/kg,iv by LC-MS-MS analysis; assay type: ADME, organism-based; details: mouse, in vivo, po, 2 mg/kg, BLD = below limit of detection
[5] = Unbound drug concentration in C57Bl/6 mouse brain at 2 mg/kg, po or 0.5 mg/kg,iv by LC-MS-MS analysis; assay type: ADME, organism-based; details: mouse, in vivo, po, 2 mg/kg, BLD = below limit of detection
[6] = Oral bioavailability in C57/BL6 mouse at 2 mg/kg by LC-MS-MS analysis; assay type: ADME, organism-based; details: in vivo
[7] = Dose normalized AUC in C57/BL6 mouse at 2 mg/kg, po by LC-MS-MS analysis; assay type: ADME, organism-based; details: in vivo
[8] = Apparent permeability across apical to basolateral membrane in MDCK-MDR1 cells by LC-MS/MS analysis; details: dog
[9] = Brain to plasma permeability coefficient, Kp in C57Bl/6 mouse 2 mg/kg, po or 0.5 mg/kg,iv by LC-MS-MS analysis; assay type: ADME, organism-based; details: mouse, brain, po, 2 mg/kg, BLD = below limit of detection
D-amino-acid oxidase [10] = target: D-amino-acid oxidase (Mus musculus, UniProt P18894); assay: Inhibition of full length mouse DAO transfected with CHO-K1 cells incubated for 30 mins by Amplex red and horseradish peroxidase based fluorescence assay; assay type: cell-based
D-amino-acid oxidase [11] = target: T1, D-amino-acid oxidase; assay: Inhibition of full length human DAO transfected in CHO-K1 cells incubated for 30 mins by Amplex red and horseradish peroxidase based fluorescence assay; assay type: cell-based
[12] = Efflux ratio of apparent permeability across basolateral to apical side over apical to basolateral side in MDCK-MDR1 cells; details: dog

T1 sequence (P14920 whole entry): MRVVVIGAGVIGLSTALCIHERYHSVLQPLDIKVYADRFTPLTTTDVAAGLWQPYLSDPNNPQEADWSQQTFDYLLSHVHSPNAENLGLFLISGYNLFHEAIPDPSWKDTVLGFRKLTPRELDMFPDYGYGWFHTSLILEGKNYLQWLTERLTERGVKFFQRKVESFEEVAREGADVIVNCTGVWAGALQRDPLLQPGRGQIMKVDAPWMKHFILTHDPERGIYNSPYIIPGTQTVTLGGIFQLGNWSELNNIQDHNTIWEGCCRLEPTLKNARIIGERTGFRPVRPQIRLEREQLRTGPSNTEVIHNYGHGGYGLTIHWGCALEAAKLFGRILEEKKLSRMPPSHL
Chain of D-amino-acid oxidase (Mus musculus, UniProt P18894) (P18894 whole entry): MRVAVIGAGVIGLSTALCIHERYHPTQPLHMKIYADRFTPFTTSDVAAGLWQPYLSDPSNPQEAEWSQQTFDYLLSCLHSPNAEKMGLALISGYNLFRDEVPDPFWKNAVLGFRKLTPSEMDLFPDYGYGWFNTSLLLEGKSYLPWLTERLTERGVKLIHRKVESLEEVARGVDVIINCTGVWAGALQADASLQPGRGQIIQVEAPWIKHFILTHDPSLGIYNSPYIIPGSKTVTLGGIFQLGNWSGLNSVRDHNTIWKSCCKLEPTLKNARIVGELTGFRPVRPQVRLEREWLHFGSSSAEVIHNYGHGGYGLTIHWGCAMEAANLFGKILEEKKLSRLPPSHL

SMILES | IC50 (D-amino-acid oxidase [1]) | EC50 (D-amino-acid oxidase [10]) | EC50 (D-amino-acid oxidase [11]) | further results
O=c1[nH]cc(CCc2cc(Cl)cc(Cl)c2)[nH]c1=O | 2500 nM |  |  | 
O=c1[nH]c(=O)n(O)cc1CCc1ccc(Cl)cc1 |  |  |  | Vdss [2]: 1.9 L/kg; K(p,uu,brain) [3]: Bld; Fu [4]: Bld; Fu [5]: Bld; bioavailability [6]: 9%; AUC/dose [7]: 13.6 ng·h/mL; Papp A→B [8]: 24 ×10⁻⁶ cm/s; Kp [9]: Bld
N#Cc1ccc(CSc2c[nH]c(=O)c(=O)[nH]2)cc1F |  | 680 nM |  | 
O=c1[nH]cc([C@@H]2COc3cc(Cl)ccc3S2)[nH]c1=O | 21 nM | 220 nM | 140 nM | 
N#Cc1ccc(CSc2c[nH]c(=O)c(=O)[nH]2)cc1 | 43 nM | 310 nM | 250 nM | 
O=c1[nH]cc(SCc2ccc(S(F)(F)(F)(F)F)cc2)[nH]c1=O |  | 500 nM |  | 
O=c1[nH]cc(SCc2ccc(C(F)F)cc2)[nH]c1=O | 70 nM | 590 nM | 450 nM | 
C[C@@]1(c2c[nH]c(=O)c(=O)[nH]2)COc2cc(Cl)ccc2S1 |  | 100 nM |  | 
CS(=O)(=O)c1ccc2c(c1)OC[C@@H](c1c[nH]c(=O)c(=O)[nH]1)S2 | 25 nM | 1200 nM | 270 nM | 
C[C@@]1(c2c[nH]c(=O)c(=O)[nH]2)COc2cc(C#N)ccc2S1 | 20 nM | 120 nM | 240 nM | 
N#Cc1ccc(SCc2c[nH]c(=O)c(=O)[nH]2)cc1Cl |  | 560 nM |  | 
N#Cc1cccc(CSc2c[nH]c(=O)c(=O)[nH]2)c1 | 440 nM |  | 3800 nM | 
O=c1[nH]cc(CSc2cnc3cc(Cl)ccc3c2)[nH]c1=O | 87 nM | 1400 nM | 1100 nM | 
C[C@@]1(c2c[nH]c(=O)c(=O)[nH]2)COc2cc(C(F)(F)F)ccc2S1 |  | 260 nM |  | 
CS(=O)(=O)c1ccc(CSc2c[nH]c(=O)c(=O)[nH]2)cc1 | 90 nM | 540 nM | 440 nM | 
N#Cc1ccc(CCc2c[nH]c(=O)c(=O)[nH]2)cc1F | 180 nM |  | 1900 nM | Papp A→B [8]: 3.3 ×10⁻⁶ cm/s; efflux ratio [12]: 0.5
O=c1[nH]cc(CCc2ccc3ncccc3c2)[nH]c1=O | 580 nM |  | 8400 nM | 
N#Cc1ccc(SCc2c[nH]c(=O)c(=O)[nH]2)cc1F | 46 nM | 970 nM | 440 nM | 
O=c1[nH]cc(SCc2ccc(C(F)(F)F)cc2)[nH]c1=O |  | 240 nM |  | 
O=c1[nH]cc(CSc2ccc(S(F)(F)(F)(F)F)cc2)[nH]c1=O | 80 nM | 790 nM | 710 nM | 
O=c1[nH]cc(C2COc3cc(C(F)(F)F)ccc3S2)[nH]c1=O (stereo not drawn) | 25 nM | 430 nM | 290 nM | 
O=c1[nH]cc(CCc2ccc(OC(F)F)nc2)[nH]c1=O | 670 nM |  | 8200 nM | 
O=c1[nH]c(=O)n(O)cc1CCc1ccccc1 |  |  |  | Papp A→B [8]: 15 ×10⁻⁶ cm/s
O=c1[nH]cc(C2COc3ccccc3S2)[nH]c1=O (racemic) | 406 nM | 720 nM | 1760 nM | 

SMILES | IC50 (D-amino-acid oxidase [1]) | EC50 (D-amino-acid oxidase [10]) | EC50 (D-amino-acid oxidase [11]) | further results
CC1(c2c[nH]c(=O)c(=O)[nH]2)COc2ccccc2S1 (racemic) |  | 250 nM |  | 
Cc1[nH]c(=O)c(=O)[nH]c1CCc1ccc(C(F)(F)F)cc1 | 3900 nM |  |  | Papp A→B [8]: 4.8 ×10⁻⁶ cm/s; efflux ratio [12]: 2.4
O=c1[nH]cc(SCc2ccc(F)c(F)c2)[nH]c1=O | 300 nM |  | 810 nM | 
C[C@@]1(c2c[nH]c(=O)c(=O)[nH]2)COc2cc(S(C)(=O)=O)ccc2S1 | 51 nM | 1500 nM | 390 nM | 
O=c1[nH]nc(Cc2ccc(Cl)cc2)cc1O |  | 4.2 nM |  | 
O=c1[nH]cc(CCc2ccccc2Cl)[nH]c1=O | 6200 nM |  |  | 
CS(=O)(=O)c1ccc(SCc2c[nH]c(=O)c(=O)[nH]2)cc1 |  | 2300 nM |  | 
O=c1[nH]cc(Cc2ccc(Cl)cc2)[nH]c1=O | 3300 nM |  |  | 
Cc1n[nH]c2cc(CCc3c[nH]c(=O)c(=O)[nH]3)ccc12 | 640 nM | 4300 nM |  | 
N#Cc1ccc(CCc2c[nH]c(=O)c(=O)[nH]2)cc1 | 5800 nM | 1500 nM | 1800 nM | Papp A→B [8]: 3 ×10⁻⁶ cm/s; efflux ratio [12]: 0.6
O=c1[nH]cc(CSc2ccc(Cl)cc2)[nH]c1=O | 130 nM | 390 nM | 680 nM | 
O=c1[nH]cc([C@@H]2COc3cc(F)ccc3S2)[nH]c1=O | 94 nM | 540 nM | 560 nM | 
O=c1[nH]cc(CCc2ccc(-c3cc(O)n[nH]3)c(F)c2)[nH]c1=O | 320 nM | 1800 nM | 2900 nM | Papp A→B [8]: 21 ×10⁻⁶ cm/s; efflux ratio [12]: 0.1
N#Cc1[nH]c(=O)c(=O)[nH]c1CCc1ccc(C(F)(F)F)cc1 | 250 nM | 340 nM | 540 nM | 
O=c1[nH]cc(CCc2cccc(Cl)c2)[nH]c1=O | 190 nM |  | 3500 nM | Papp A→B [8]: 6.8 ×10⁻⁶ cm/s; efflux ratio [12]: 0.9
O=c1[nH]cc([C@@H]2COc3cc(C(F)F)ccc3S2)[nH]c1=O |  | 290 nM |  | 
O=c1[nH]cc(SCc2ccc(Cl)cc2)[nH]c1=O | 150 nM | 510 nM | 400 nM | 
O=c1[nH]cc(CCc2ccccc2)[nH]c1=O | 340 nM |  |  | Papp A→B [8]: 4 ×10⁻⁶ cm/s; efflux ratio [12]: 0.4
O=c1[nH]cc(SCc2ccc(C(F)(F)F)nc2)[nH]c1=O | 250 nM | 590 nM | 1100 nM | Papp A→B [8]: 2.4 ×10⁻⁶ cm/s; efflux ratio [12]: 0.4
O=c1[nH]c(Cl)c(CCc2ccc(C(F)(F)F)cc2)[nH]c1=O | 1500 nM |  | 500 nM | 
O=c1[nH]cc(CCc2ccc(Cl)cc2)[nH]c1=O | 320 nM |  |  | 
N#Cc1ccc2c(c1)OC[C@@H](c1c[nH]c(=O)c(=O)[nH]1)S2 | 20 nM | 780 nM | 630 nM | Papp A→B [8]: 3.1 ×10⁻⁶ cm/s; efflux ratio [12]: 3.1
COc1ccc(CCc2c[nH]c(=O)c(=O)[nH]2)cc1 | 320 nM |  |  | 
